One compound from patent publication US9518061B2, “Substituted pyrazolylpyrazole derivative and use of same as herbicide” (KYOYU AGRI CO., LTD., priority 2013, dated 2016) can be followed below.

For data set [1], the system named is Amaranthus retroflexus. The data set can be described thus: Farming soil treatment test. It counts as in vivo. The settings on record: soil surface spray prior to weed growth, 30 days. On the procedure:
(§1) 2. Farming Soil Treatment Test
(§2) Field soil was filled into a 1/6000 are pot followed by seeding with Digitaria ciliaris, Chenopodium album and Amaranthus retroflexus and covering with soil.
(§3) Wettable powder of compounds of formula (D shown in Table 1 prepared in compliance with the preparation examples were diluted with water to the prescribed amount of chemical and uniformly sprayed onto each soil surface layer using 10 liters of sprayed water per are prior to weed growth following seeding.
(§4) After treating for 30 days in a glass greenhouse at an average atmospheric temperature of 30° C., the herbicidal efficacy thereof was investigated.
(§5) Evaluation of herbicidal efficacy was carried out in the same manner as the above-mentioned Test Example 1.

Data set [2] has as its system Digitaria ciliaris. The data set can be described thus: Farming soil treatment test. It is filed as in vivo. The settings on record: soil surface spray prior to weed growth, 30 days. The method, then:
as §1, §2, §3, §4, §5

The subject of data set [3] is Chenopodium album. The data set can be described thus: Farming soil treatment test. It is filed as in vivo. The note with it: soil surface spray prior to weed growth, 30 days. The method, then:
as §1, §2, §3, §4, §5

The test system of data set [4] is Amaranthus retroflexus. The data set can be described thus: Weed foliar treatment test. It counts as in vivo. The note with it: foliar spray, 3 weeks. The method, then:
(§6) 3. Weed Foliar Treatment Test
(§7) Soil was filled into a 1/6000 are pot followed by seeding with Digitaria ciliaris, Chenopodium album and Amaranthus retroflexus, covering with soil, and cultivating in a glass greenhouse at an average atmospheric temperature of 25° C.
(§8) Wettable powder of Target Compound (I) shown in Table 1 prepared in compliance with the preparation examples were diluted with water to the prescribed amount of chemical and uniformly sprayed onto the weeds using 15 liters of sprayed water per are when Digitaria ciliaris had grown to the 1.0 to 2.0 leaf stage.
(§9) After treating for 3 weeks in a glass greenhouse at an average atmospheric temperature of 25° C., the herbicidal efficacy thereof was investigated.
as §5

Data set [5] concerns Digitaria ciliaris. As to the kind of experiment: Weed foliar treatment test. It is filed as in vivo. The settings on record: foliar spray at 1.0 to 2.0 leaf stage of Digitaria ciliaris, 3 weeks. On the procedure: as §6, §7, §8, §9, §5
In data set [6] the test system is Chenopodium album. As to the kind of experiment: Weed foliar treatment test. It is filed as in vivo. The note with it: foliar spray, 3 weeks. On the procedure: as §6, §7, §8, §9, §5
A further data set has as its system Echinochloa crus-galli. The data set can be described thus: Paddy herbicidal activity test. The note with it: irrigated paddy pot, treated at 3.5 leaf stage of Echinochloa crus-galli, 30 days. It is filed as in vivo. The gist of the method: (§10)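 Flooded paddy-soil pots (3 cm water) seeded with weeds; rice at 2.0-leaf stage transplanted when Echinochloa reached 3.5-leaf stage, then diluted wettable powder dropped in at set rate per are. After 30 days in greenhouse (avg 30° C), growth inhibition (%) scored on 11-level scale vs untreated (efficacy) or complete-kill group (phytotoxicity).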

Another data set relates to Scirpus juncoides. As to the kind of experiment: Paddy herbicidal activity test. It is filed as in vivo. The settings on record: irrigated paddy pot, 30 days. The method in brief:
as §10

In another data set the test system is Monochoria vaginalis. The data set can be described thus: Paddy herbicidal activity test. It counts as in vivo. The note with it: irrigated paddy pot, 30 days. The method in brief:
as §10

Another data set has as its system Rice plants. The data set can be described thus: Paddy herbicidal activity test, phytotoxicity to transplanted rice. It is filed as in vivo. The note with it: rice transplanted in 2.0 leaf stage, 30 days. The gist of the method: as §10

The term melting point denotes the temperature of the solid-liquid transition. On to `COCCN(C(=O)C(F)(F)F)c1c(C#N)cnn1-c1nn2c(c1Cl)CCCC2` [Compound 2, N-(1-(3-chloro-4,5,6,7-tetrahydropyrazolo[1,5-a]pyridin-2-yl)-4-cyanopyrazol-5-yl)-N-(2-methoxyethyl)-2,2,2-trifluoroacetamide], for which the melting point was 102 to 103 °C. For the same compound, the “herbicidal efficacy (growth inhibition rate level) Amaranthus retroflexus” value in the data set with Amaranthus retroflexus [1] (5g a.i./10a) is on record as 10 (100%). Besides, the “herbicidal efficacy (growth inhibition rate level) Amaranthus retroflexus” value in the data set with Amaranthus retroflexus [1] (10g a.i./10a) is 10 (100%). The “herbicidal efficacy (growth inhibition rate level) Digitaria ciliaris” value with Digitaria ciliaris [2] (5g a.i./10a) is listed as 10 (100%). Further, in the data set with Digitaria ciliaris [2] (10g a.i./10a), the “herbicidal efficacy (growth inhibition rate level) Digitaria ciliaris” value is 10 (100%). Also, in the data set with Chenopodium album [3] (5g a.i./10a), the “herbicidal efficacy (growth inhibition rate level) Chenopodium album” value is given as 10 (100%). Also, the “herbicidal efficacy (growth inhibition rate level) Chenopodium album” value in the data set on Chenopodium album [3] (10g a.i./10a) is given as 10 (100%). For the same compound, the “herbicidal efficacy (growth inhibition rate level) Amaranthus retroflexus” value in the data set with Amaranthus retroflexus [4] (5g a.i./10a) is recorded as 10 (100%). Also, the “herbicidal efficacy (growth inhibition rate level) Amaranthus retroflexus” value in the data set on Amaranthus retroflexus [4] (10g a.i./10a) was 10 (100%). For the same compound, the “herbicidal efficacy (growth inhibition rate level) Digitaria ciliaris” value in the data set with Digitaria ciliaris [5] (5g a.i./10a) is 10 (100%). Also, in the data set on Digitaria ciliaris [5] (10g a.i./10a), the “herbicidal efficacy (growth inhibition rate level) Digitaria ciliaris” value is recorded as 10 (100%). Also, the “herbicidal efficacy (growth inhibition rate level) Chenopodium album” value in the data set on Chenopodium album [6] (5g a.i./10a) was 10 (100%). In the data set on Chenopodium album [6] (10g a.i./10a), the “herbicidal efficacy (growth inhibition rate level) Chenopodium album” value is 10 (100%). Besides, the “herbicidal efficacy (growth inhibition rate level) Echinochloa crus-galli” value in the data set on Echinochloa crus-galli (1g a.i./10a) is reported as 9 (90% to less than 100%). Also, the “herbicidal efficacy (growth inhibition rate level) Echinochloa crus-galli” value in the data set on Echinochloa crus-galli (5g a.i./10a) is given as 9 (90% to less than 100%). For the same compound, the “herbicidal efficacy (growth inhibition rate level) Scirpus juncoides” value in the data set with Scirpus juncoides (1g a.i./10a) is 9 (90% to less than 100%). The “herbicidal efficacy (growth inhibition rate level) Scirpus juncoides” value in the data set with Scirpus juncoides (5g a.i./10a) is 9 (90% to less than 100%). Also, the “herbicidal efficacy (growth inhibition rate level) Monochoria vaginalis” value in the data set on Monochoria vaginalis (1g a.i./10a) is recorded as 8 (80% to less than 90%). Further, the “herbicidal efficacy (growth inhibition rate level) Monochoria vaginalis” value in the data set with Monochoria vaginalis (5g a.i./10a) is listed as 9 (90% to less than 100%). In addition, in the data set with Rice plants (1g a.i./10a), the “phytotoxicity (growth inhibition rate level) Rice plants” value is 0 (0 (exponent): 0% to less than 10% (growth inhibition rate)). Further, in the data set with Rice plants (5g a.i./10a), the “phytotoxicity (growth inhibition rate level) Rice plants” value is 1 (10% to less than 20%).
